# Measured values taken from patent publication US12050220B2, “Cell labeling agent and cell labeling kit” (University of Miyazaki, priority 2018, dated 2024).
# Columns and labels:
# HeLa cells = test: Fluorescence imaging of cells (metabolic labeling, FAM-tetrazine staining, confocal microscopy); assay type: cell-based
# Experimental: BCN-ManNAc was added to the medium containing 1×10^5 HeLa cells and cultured for 72 hours. The medium used was DMEM (Dulbecco's Modified Eagle's Medium) containing 10% FBS (fetal bovine serum). The final concentrations of BCN-ManNAc added to the medium were 0, 2.5, 5, 10, 20, and 25 μM. After incubation, the medium was removed and the cells were washed three times with PBS. 3.7% paraformaldehyde was added and the cells were fixed for 20 min at room temperature. A final concentration of 1 μM FAM-tetrazine was added to the plate containing the fixed cells, and the cells were incubated for 20 min at room temperature. Fluorescence measurement was performed using a confocal microscopy (Leica TCS SP8, Leica Microsystems).
# [1] = Confirmation of the reactivity of BCN-ManNAc in vitro (click reaction with FAM-tetrazine, fluorescence spectra); conditions: BCN-ManNAc 200 μM, FAM-tetrazine 1 μM, PBS; time-varying measurement up to 4000 s
# Experimental: 2.0 mg of BCN-ManNAc was dissolved in 190 μL of DMSO and 20 mM of BCN-ManNAc solution was prepared. 1.0 mg of FAM-tetrazine was dissolved in 180 μL of DMSO and […] of FAM-tetrazine solution was prepared. 89 μL of phosphate-buffered saline (PBS) was prepared in a microtube, to which 1 μL of BCN-ManNAc solution and 10 μL of FAM-tetrazine solution were added, and the mixture was stirred well in a vortex mixer. The final concentrations of BCN-ManNAc and FAM-tetrazine in the mixture are 200 μM and 1 μM, respectively.
# 100 μL of the mixture was reacted at 37° C. for 1.5 hours. As a control, 100 μL of the sample of BCN-ManNAc 200 μM only was prepared. The fluorescence spectra of the mixture and control were measured using a spectrophotometer (JASCO FP-8200) (λex=492 nm, λem=517 nm). To evaluate the time dependence of the reaction of BCN-ManNAc and FAM-tetrazine, the fluorescence spectra of 100 μL of the mixture were measured up to 4000 s in the time-varying measurement mode.
substance,measurement,setting,value
acetylated BCN-modified mannosamine [BCN-ManNAc],fluorescence of FAM in cells,"HeLa cells; HeLa cells cultured 72 hours with 0, 2.5, 5, 10, 20, 25 μM, fixed, 1 μM FAM-tetrazine 20 min",increased in a concentration-dependent manner
same,fluorescence images of cells exposed to FAM-tetrazine (+),"HeLa cells; HeLa cells cultured in medium containing 25 μM, with FAM-tetrazine (+) vs without (−)",observed by fluorescence
same,time at which fluorescence intensity almost reached its maximum,[1],about 1800 s
